Test results published in patent US7838490B2, “Methods and compositions for inhibition of vascular permeability” (University of Virginia Patent Foundation, priority 2005, dated 2010).

Columns and labels:
Erk [1] = assay: phospho-Erk staining of lung sections from LPS-treated mice; assay type: in vivo; settings: 6 h, peptides 1 mg, UO126 0.5 ml of 70 μM
Protocol: A. Mice were injected with Nck-blocking peptide (1 mg; comprising SEQ ID NO:7), control peptide (1 mg) or UO126 (0.5 ml of 70 μM), then treated with or without LPS as in FIG. 1. At 6 hours, the lungs were removed, sectioned, and stained for activated Erk using pT202/pY204 antibody. Small arrows indicate unidentified cells in control lungs that stain positively. Large arrows indicate conduit blood vessels.
C. Lungs from mice pretreated with 1 mg/ml PIX blocking peptide and exposed to LPS as in FIG. 3A were stained for phospho-Erk. […] Arrow indicates a conduit vessel.
Control animals inhaled saline.
Mouse lungs were inflated with an intratracheal instillation of PFA 4% at a constant pressure (20 cm H2O) for 15 minutes. Next, lungs were removed and fixed in PFA 4% for 24 h and embedded in paraffin. Sections (5 μm) were cut for IHC and treated with antigen unmasking solution (Vector Laboratories). Sections were stained with monoclonal rabbit anti p-ERK (1:400 Cell Signaling) overnight and detected with Vectastain Elite Kit (Vector Laboratories). Visualization was done with DAB (Dako Corp) and couterstained with hematoxylin. Images were acquired using 20 or 40× objective on a microscope (model BX51; Olympus) equipped with a digital camera (model DP70 Olympus) using ImagePro software program.

Erk [2] = assay: Erk activation in BAECs (Western blotting, immunostaining); assay type: cell-based, bovine; settings: 20 μg/ml peptide or 25 μM U0126 for 1 hour; for immunostaining for activated Erk: then 25 ng/ml VEGF 30 minutes; for activation of Erk by VEGF (Western blotting): then VEGF 30 min
Protocol: After 1 hour, 25 ng/ml VEGF was added for 30 minutes. Cells were then fixed and stained for activated Erk.
B. Cells as in A were extracted and analyzed for Erk phosphorylation by Western blotting.
D. BAECs were incubated with peptides and stimulated with VEGF as in C, then lysed and analyzed for Erk activation by Western blotting.
Coverslips were washed and mounted using FluoroMount (Invitrogen).

[3] = system: mice exposed to aerosolized LPS; assay: LPS-induced pulmonary microvascular permeability (Evans blue dye extravasation)
Protocol: B. Mice inhaled LPS with control or Nck blocking peptide as in A. At 6 hours, they were injected with Evans blue dye and leakage into the lung assayed at 1 h.
B. Mice received intraperitoneal injections with the indicated amounts of the PIX blocking or control peptides. They were treated with aerosolized LPS for 6 h then leakage of Evans blue dye into the lung assayed as described in Methods.
Wild type male mice (C57B1/6, 8 to 12 weeks of age, Jackson Labs, Bar Harbor, Me.) were exposed to aerosolized LPS (Salmonella enteritidis, Sigma Co., St. Louis, Mo.) for 30 min. […] Control animals inhaled saline. Some mice received intraperitoneal (ip) injection of the PAK inhibitory or control peptides 30 min prior to treatment. […] Permeability was analyzed at 6 h using the Evans blue dye extravasation technique (Green et al., 1988). Briefly, Evans blue (20 mg/kg; Sigma) was injected intravenously 30 minutes prior to euthanasia. Lungs were perfused through the spontaneously beating right ventricle to remove intravascular dye. Lungs were removed and Evans blue was extracted as described (Peng et al., 2004). The absorption of Evans blue was measured at 620 nm and corrected for the presence of heme pigments: A620 (corrected)=A620−(1.426×A740+0.030) (Wang le et al., 2002). Extravasated Evans blue was calculated against a standard curve (micrograms Evans blue dye per gram lung).

BAECs = assay: In vitro permeability: HRP leakage across BAEC monolayer on 3 μm filters; assay type: cell-based; settings: bovine endothelial cells; peptide 20 μg/ml
Protocol: C. […] Cells were left untreated or stimulated for […] with 25 ng/ml VEGF, 50 ng/ml bFGF, or 10 μM histamine. Leakage of horseradish peroxidase (HRP) across the filter was assayed as described in Methods.
A. BAECs on filters with 3.0 μm pores were pretreated with 20 μg/ml PIX blocking or control peptides for 1 hour, then stimulated with VEGF for 30 minutes. HRP movement across the monolayer was assayed as described in Methods.
(§1) BAECs on FN-coated 3 μm filters at near-confluence were transfected with 0.5 μg cDNA using Effectene as described above. At 48 h, cells were pre-treated for 60 min with PAK peptides as indicated. For some experiments, cells were nucleofected, then plated on filters and grown to confluence for 48 hr. Filters were then placed in outer wells with 500 μl fresh DMEM without phenol red or serum. To each filter well was added 200 μl medium plus 50 μl of 1.5 μg/ml horseradish peroxidase (HRP) with or without cytokines as described. After 30 min, filters were removed and fixed, and the medium in the lower wells assayed for HRP as described (Stockton et al., 2004). Values were normalized to control, untreated wells.

HUVECs = assay: In vitro permeability: HRP leakage across HUVEC monolayer; assay type: cell-based, human; settings: peptide 20 μg/ml, not shown
Protocol: B. HUVECs were transfected with siRNA oligonucleotides specific to GIT1 or with control, scrambled siRNA. Total cell lysates at 72 hours were analyzed for GIT1 expression by Western blotting (top). Cells on filters were analyzed for permeability to HRP after treatment with VEGF (50 ng/ml), histamine (10 μM) or thrombin (0.2 U/ml).
The βPIX and GIT1 constructs were obtained from Dr. A. F. Horwitz. The ΔGBD βPIX (mutated for GIT1 binding) and ΔSHD mutant of GIT1 (mutated for PIX and MEK binding) were as described (Zhang et al., 2003). Dominant negative MEK1 was as described (Renshaw et al., 1997). GIT1 Smartpool siRNA oligos against human sequence were obtained from Dharmacon and the experiments were carried out in HUVECs. The Smartpool mixture contained 4 different siRNA oligos. The four different sense sequences are:
as §1, with “After 30 min, filters were removed and fixed, and the medium in the lower wells assayed for HRP as described (Stockton et al., 2004). Values were normalized to control, untreated wells.” left out

βPIX = biological target: T1, βPIX (Homo sapiens, UniProt Q14155); assay: Pull-down from cell lysates with biotin-tagged peptides on streptavidin beads; assay type: binding; settings: Western blotting
T1 construct: expressed in transfected cells
T1 sequence (Q14155 1-646 isoform Q14155-1): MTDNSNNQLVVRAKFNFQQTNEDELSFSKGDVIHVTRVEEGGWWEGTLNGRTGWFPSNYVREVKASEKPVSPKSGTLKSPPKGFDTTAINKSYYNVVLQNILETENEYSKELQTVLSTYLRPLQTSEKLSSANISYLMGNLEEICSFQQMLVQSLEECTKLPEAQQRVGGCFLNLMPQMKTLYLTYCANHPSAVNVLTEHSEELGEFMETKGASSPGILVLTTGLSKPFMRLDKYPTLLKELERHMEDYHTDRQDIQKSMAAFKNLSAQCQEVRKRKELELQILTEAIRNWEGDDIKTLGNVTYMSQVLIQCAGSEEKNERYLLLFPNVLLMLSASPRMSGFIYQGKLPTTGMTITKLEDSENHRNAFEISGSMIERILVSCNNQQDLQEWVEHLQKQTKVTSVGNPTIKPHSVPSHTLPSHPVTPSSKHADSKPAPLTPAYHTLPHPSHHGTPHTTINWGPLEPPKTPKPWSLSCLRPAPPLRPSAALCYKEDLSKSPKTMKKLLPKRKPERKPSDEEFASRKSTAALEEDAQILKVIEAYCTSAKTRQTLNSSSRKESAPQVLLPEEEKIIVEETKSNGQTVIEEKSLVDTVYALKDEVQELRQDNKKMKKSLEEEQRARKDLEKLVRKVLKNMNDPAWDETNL
Protocol: (§2) B. Cell lysates were incubated with peptides immobilized on streptavidin beads and the whole cell lysates (WCL) or bound proteins analyzed by Western blotting.
(§3) Cells were stimulated, washed with cold PBS, extracted with 0.5 ml cold immunoprecipitation (IP) buffer (20 mM Tris pH 7.6, 0.5% NP40, 250 mM NaCl, 5 mM EDTA, 3 mM EGTA; plus Sigma protease and phosphatase inhibitor cocktails) for 10 min. They were passed through an 18 gauge needle 3× and centrifuged for 10 min at 12,000×g in a microfuge. […] Anti-GIT1 and anti-βPIX were from Santa Cruz Biotechnology. […] For binding to peptides, 25 μg of biotin-tagged peptides were incubated with 25 μl of streptavidin beads for 30 min, then rinsed and incubated with 0.5 cell lysates for 30 min. Bound proteins were detected by Western blotting with the indicated antibodies. For βPIX, cells were transfected with HA-PIX and blots probed using anti-HA. Proteins were electrophoretically transferred to PVDF membranes, blocked with 5% milk in Tris-buffered saline (TBS) and probed overnight with primary antibodies in the same buffer. Membranes were washed 4×, probed with secondary antibodies for 2 h, and then visualized using chemiluminescence (ECL, Amersham).

cortactin = biological target: T2, cortactin (Homo sapiens, UniProt Q14247); assay: as above; assay type: binding; settings: Western blotting
T2 construct: endogenous in cells
T2 sequence (Q14247 1-550): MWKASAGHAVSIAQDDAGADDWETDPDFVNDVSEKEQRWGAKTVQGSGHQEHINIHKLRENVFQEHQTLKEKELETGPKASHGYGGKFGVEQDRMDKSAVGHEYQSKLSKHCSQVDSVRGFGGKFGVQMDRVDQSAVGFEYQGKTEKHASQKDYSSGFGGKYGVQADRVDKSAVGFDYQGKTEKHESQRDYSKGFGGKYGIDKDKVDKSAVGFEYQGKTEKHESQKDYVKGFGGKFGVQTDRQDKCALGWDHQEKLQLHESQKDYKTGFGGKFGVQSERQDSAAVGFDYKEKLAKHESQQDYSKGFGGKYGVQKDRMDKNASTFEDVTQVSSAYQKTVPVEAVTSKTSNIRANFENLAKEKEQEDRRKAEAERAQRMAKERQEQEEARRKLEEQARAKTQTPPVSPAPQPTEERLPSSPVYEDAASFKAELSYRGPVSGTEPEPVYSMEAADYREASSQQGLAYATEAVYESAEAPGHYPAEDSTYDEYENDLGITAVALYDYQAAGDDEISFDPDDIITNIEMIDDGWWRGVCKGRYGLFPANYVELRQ
Protocol: as §2, §3

CD2AP = biological target: T3, CD2AP (Homo sapiens, UniProt Q9Y5K6); assay: as above; assay type: binding; settings: higher amounts of cell lysates; not shown
T3 construct: endogenous in cells
T3 sequence (Q9Y5K6 whole entry, species assumed): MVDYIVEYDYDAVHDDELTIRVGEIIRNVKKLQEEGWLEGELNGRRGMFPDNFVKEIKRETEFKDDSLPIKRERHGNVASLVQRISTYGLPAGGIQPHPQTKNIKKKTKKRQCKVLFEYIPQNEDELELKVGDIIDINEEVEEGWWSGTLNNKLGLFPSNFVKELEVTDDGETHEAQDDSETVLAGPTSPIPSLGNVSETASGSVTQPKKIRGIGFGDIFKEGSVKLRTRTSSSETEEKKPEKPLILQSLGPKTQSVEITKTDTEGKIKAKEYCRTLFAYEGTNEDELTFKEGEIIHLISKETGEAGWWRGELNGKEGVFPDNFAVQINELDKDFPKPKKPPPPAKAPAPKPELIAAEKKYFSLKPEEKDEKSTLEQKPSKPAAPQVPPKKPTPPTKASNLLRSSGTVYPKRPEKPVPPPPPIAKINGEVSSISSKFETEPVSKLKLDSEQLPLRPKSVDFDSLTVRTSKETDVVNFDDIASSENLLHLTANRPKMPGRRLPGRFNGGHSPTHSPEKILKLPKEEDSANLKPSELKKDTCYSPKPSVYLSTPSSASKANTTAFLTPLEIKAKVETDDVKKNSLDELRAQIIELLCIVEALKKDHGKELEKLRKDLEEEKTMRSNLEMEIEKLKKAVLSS

DOCK180 = biological target: T4, DOCK180 (Homo sapiens, UniProt Q14185); assay: as above; assay type: binding; settings: higher amounts of cell lysates; not shown
T4 construct: endogenous in cells

[4] = system: other SH3-containing proteins; settings: cell lysates; Western blotting
Protocol: as §2, §3

[5] = system: interaction between PAK and PIX; settings: BAECs, 20 μg/ml peptide 1 h, VEGF 30 min
Protocol: BAECs were incubated with PIX blocking or control peptide at 20 μg/ml for 1 h, then stimulated with VEGF for 30 min. Cells were rinsed, lysed, and βPIX immunoprecipitated. The IP's were analyzed by Western blotting.
Cells were stimulated, washed with cold PBS, extracted with 0.5 ml cold immunoprecipitation (IP) buffer (20 mM Tris pH 7.6, 0.5% NP40, 250 mM NaCl, 5 mM EDTA, 3 mM EGTA; plus Sigma protease and phosphatase inhibitor cocktails) for 10 min. They were passed through an 18 gauge needle 3× and centrifuged for 10 min at 12,000×g in a microfuge. Supernatants were precleared with 25 μl of Protein G-agarose beads and incubated with the indicated primary antibody for 2 hrs at 4°. […] 25 μl of protein A- or protein G-agarose beads were added and incubated for another 2 h while rotating at 4° C. Beads were sedimented and washed 3× with 0.5 ml IP buffer and separated by SDS-PAGE. […] Proteins were electrophoretically transferred to PVDF membranes, blocked with 5% milk in Tris-buffered saline (TBS) and probed overnight with primary antibodies in the same buffer. Membranes were washed 4×, probed with secondary antibodies for 2 h, and then visualized using chemiluminescence (ECL, Amersham).

actin cytoskeleton = settings: BAECs; 20 μg/ml peptide; bFGF 60 min
Protocol: E. Cells incubated with peptides as in C and stimulated with bFGF for 60 min, then stained for F-actin.
Cells were fixed for 60 minutes in 3.5% formaldehyde, washed, and permeabilized for 10 minutes in 0.2% TX100. Coverslips were blocked with PBS containing 10% goat serum for 60 minutes, then probed 8 hours at 4° C. with 200 μl containing the following antibodies: phospho-ERK at 1:500; phospho-MEK at 1:500; phospho-PAK at 1:500; phospho-MLC at 1:500 (all from BioSource International); βPIX at 1:200 or GIT1 at 1:200 (Santa Cruz Biotechnology). Coverslips were washed and probed overnight at 4° C. with 200 μl anti-mouse IgG-Alexa 568 or anti-rabbit IgG-Alexa 488 (Molecular Probes) at 1:1000. Coverslips were washed and mounted using FluoroMount (Invitrogen).

Compound: N#CC(=C(/N)Sc1ccccc1N)/C(C#N)=C(\N)Sc1ccccc1N [U0126, reference compound]
- Erk activation (phospho-Erk staining) in lung sections (Erk [1]): blocked Erk activation throughout the tissue
- immunostaining for activated Erk (Erk [2]): nearly eliminated
- activation of Erk by VEGF (Western blotting) (Erk [2]): blocked
- induction of vascular leak by LPS (Evans blue dye) ([3]; 0.5 ml of 70 μM U0126 ip, 6 h): significantly blocked

Compound: YGRKKRRQRRRGKPPAPPMRNTSTM (listed as Homo sapiens) [Nck-blocking peptide]
- Erk activation (phospho-Erk staining) in lung sections (Erk [1]): largely prevented
- immunostaining for activated Erk (Erk [2]): decreased phosphoErk at cell-cell borders
- activation of Erk by VEGF (Western blotting) (Erk [2]): blocked
- leakage of Evans blue dye into the lung after inhalation of LPS ([3]; 1 mg peptide ip prior to aerosolized LPS, assayed at 6 h): strongly inhibited

Compound: YGRKKRRQRRRGPPPVIAPRPEHTKSVYTR-K+Biotin [PIX-binding peptide]
- block of the increase in permeability in vitro in response to VEGF (BAECs): approximately 80%
- block of the increase in permeability in vitro in response to VEGF (HUVECs): approximately 80%
- binding of βPIX to immobilized peptide (βPIX): bound βPIX with high efficiency
- binding of cortactin to immobilized peptide (cortactin): weak but reproducible binding
- binding of CD2AP to immobilized peptide (CD2AP): weak, specific binding
- binding of DOCK180 to immobilized peptide (DOCK180): weak but nonspecific binding
- binding of other SH3-containing proteins to immobilized peptide [4]: no binding
- amount of PIX in βPIX immunoprecipitates [5]: no effect
- reduction of PAK in βPIX precipitates ([5]; peptide washed out before lysis): about 70%
- increase in actin stress fibers in response to bFGF or VEGF (actin cytoskeleton): blocked
